Patent publication US20090011975A1, “TARGETED BONE MARROW PROTECTION AGENTS” (Semafore Pharmaceuticals Inc., priority 2003, published 2009)
Where two headings read alike, the source gives them in different places.

Columns and labels:
[1] = Reversibility of acyl methylenes in phosphate buffer; assay type: physicochemical; settings: 50 mM phosphate buffer
Experimental: A prodrug strategy was devised using cyclized PFT-β and a structure activity relationship to obtain a prodrug linkage that converts to the native drug with about a 3 day half-life. A key novel intermediate (BI) (the chemical structure of which is set forth in FIG. 22) was generated in greater than 90% yield and >95% purity. […] This allowed preparation of the acyl methylene compounds recited in Table 2. All of the compounds of Table 2 were diluted into 50 mM phosphate buffer at pH=7.4 and pH=4.8 at room temperature and analyzed over time for stability. The amount of PFT-β was quantitated, and the amount of acyl methylene disappearing over time was quantitated by LCMS. A half-life for the cleavage of the acyl methylenes to generate PFT-β under relevant physiological conditions was determined. These half lives are set forth in Table 2 associated with the structures.

[2] = Affinity of bone targeting agents to hydroxyapatite (supernatant LCMS); assay type: binding; settings: 0.100 mM test solution in TBS pH 7.40, HA suspension 1.00 or 10.0 mg/ml, 1 hour (FIG. 25)
Experimental: To determine the affinity of the bone targeting agents to hydroxyapatite, the method described in Willson et al., Biorganic & Medicinal Chemistry Letters, 6(9), 1043-1046 (1996) for determining bone affinity using HPLC retention on a hydroxyapatite column was modified. The affinity of several bone targeting agents was determined using the following method. […] The suspension was diluted to prepare a 1.00 mg/ml HA suspension by stirring on a magnetic stir plate at the slowest speed necessary to create a uniform suspension appropriate for sampling. Each tested compound was dissolved in TBS at a concentration of 0.100 mM. 200 μl of test solution was mixed with 200 μl of TBS, HA at 1.00 mg/ml, or HA at 10.0 mg/ml, and agitated on an orbital shaker at 200 rpm for 1 hour. Each experiment was performed in triplicate. The supernatant solution was analyzed using single ion monitoring (SIM) mass spectral mode on a Shimadzu LCMS-2010 liquid chromatograph-mass spectrometer. The SIM counts in the test compound/TBS solutions were set at 100%. The amount of test compound present in the HA supernatant test solutions was expressed as a percentage of the amount of test compound available with no hydroxyapatite present. Tetracycline was included as a positive control.

[3] = Binding of (BH) to hydroxyapatite and resistance to washing
Experimental: The final conjugate (BH) (see Table 2) was synthesized (assembled) as described and purified by HPLC. […] A 900 μL aliquot of 1.9 mM (BH) in 5 mM phosphate buffer at pH=7 was mixed with 100 μL of an hydroxyapatite suspension (25 weight percent hydroxyapatite; Sigma) containing approximately 25 mg of hydroxyapatite. The suspension was mixed gently for 15 minutes and then centrifuged at 10,000 rpm for one minute. A 100 μL aliquot was removed and analyzed by electrospray LCMS and compared to a standard solution that had not been exposed to hydroxyapatite. […] The supernatant was decanted from the hydroxyapatite solid, an additional 900 μL of de-ionized water was added, and the mix was shaken vigorously for 20 seconds. The suspension was then centrifuged at 10,000 rpm for one minute. A 100 μL aliquot of suspension was removed and analyzed by electrospray LCMS and compared to the standard solution that had not been exposed to hydroxyapatite. […] The supernatant was decanted from the hydroxyapatite solid, an additional 900 μL of de-ionized water was added, and the mix was shaken vigorously for 20 seconds. The suspension was then centrifuged at 10,000 rpm for one minute. A 100 μL aliquot was removed and analyzed by electrospray LCMS and compared to the standard solution. […] Thus, of the original 1.74 μMoles of (BH) present in the supernatant and exposed to the hydroxyapatite, a total of 0.48 μMoles was recovered in the original supernatant plus the two water washes.

[4] = Liberation of PFT-β from hydroxyapatite-bound (BH) over time; assay type: physicochemical
Experimental: The hydroxyapatite of the suspension was then resuspended in wash number 2 supernatant by pipetting up and down. A 20 μL aliquot of the resulting 900 μL suspension was removed and extracted with methanol. An analysis of the methanol extract by LCMS (versus a standard of (BH)) indicated no detectable (BH) was extractable from the hydroxyapatite sample known to contain the 1.26 μMoles of (BH) described above. […] The suspension was then gently rocked for 34 hours. A 20 μL aliquot was removed and analyzed after extraction with methanol. […] An addition aliquot of the gently mixed suspension was obtained after a total 153 hours contained no detectable, extractable (BH).

[5] = Conversion of PFT-α to PFT-β in human serum; assay type: in vitro ADME; settings: for peak area (254 nm), Human Serum Stability: PFT-α initially 50 μMolar, 37° C.
Experimental: (§1) A 10.0 mMolar solution of PFT-α in DMSO was prepared. A 5 μL aliquot of the solution was diluted with 495 μL of methanol, and further diluted with 500 μL of acetonitrile to produce a comparison standard 50 μMolar solution. Five 5 μL aliquots of 10.0 mMolar solution of PFT-α in DMSO was added to each of five plastic vials containing 495 μL of human serum (Sigma-Aldrich), and the vials were capped. The solution was mixed thoroughly and allowed to stand at 37° C. At different timepoints, each of the 5 vials were removed from heat, cooled to room temperature, and the solution was diluted with 500 μL of acetonitrile to precipitate proteins and nondesirable solutes. Each mixture was vortexed vigorously, passed through a 0.2 um Whatman Uniprep sample filter device, and analyzed by LC-MS (the methods of which are described in Example 12). The UV areas for the peak corresponding to PFT-α (retention time=1.8 minutes) and for the peak corresponding to PFT-β (retention time=3.9 minutes) were tabulated.

[6] = Conversion of PFT-α to PFT-β in phosphate buffer pH 7.4; assay type: physicochemical; settings: for peak area (254 nm), Phosphate Buffer pH = 7.4 Stability: PFT-α initially 50 μMolar, 37° C.
Experimental: as §1
The method set forth above was repeated wherein 50 mMolar phosphate buffer (pH=7.4) was substituted for human serum.

[7] = system: C8 cells (mouse embryo fibroblasts transformed with E1a+ras); settings: cited from earlier work
[8] = system: C57BL strain and Balb/c strain mice; settings: cited from earlier work
p53-null mice = settings: PFT-α injections; cited from earlier work
[9] = system: p53-mediated transcription; experiment: p53-mediated transcription, MASPIN promoter-luciferase in HBECs; assay type: cell-based, human; settings: PFT-β liberated from (BH) on hydroxyapatite, HBECs transfected with wild type p53 plasmid (FIG. 27)
Experimental: The binding to hydroxyapatite to the bone targeted prodrug (BH) and its conversion over time to liberate PFT-β was described in Example 10. The PFT-β liberated (5.11 millimolar solution from Example 10) was assayed for its biological activity by evaluating the degree of p53-mediated transcription in the presence and absence of the liberated PFT-β. The assay comprised transiently transfecting human brain endothelial cells (HBECs) with a plasmid comprising the MASPIN promoter, which contains two p53 binding sites, operably linked to the luciferase gene. A group of HBECs was transiently transfected with a plasmid encoding wild type p53. Thus, if p53 produced in the transfected HBECs is active, transcription of the luciferase gene will be activated and the produced luciferase detected. p53-mediated transcription is measured relative to the internal control plasmid pCMVβ-galactosidase to control for transfection efficiency.
The results of the assay are set forth in the bar graph of FIG. 27, the data of which represents fold induction of p53-specific transcriptional activity in HBECs. Column 1 of FIG. 27 represents a negative control resulting from HBECs not transfected with the wild type p53 plasmid. Column 2 of FIG. 27 represents data obtained from HBECs transfected with the wild type p53 plasmid which were not exposed to PFT-β. […]

Aqueous solubility = assay type: physicochemical
[10] = pH 4.8, room temperature, read-out: Half Life pH = 4.8
[11] = pH 7.4, room temperature, read-out: Half Life pH = 7.4 (converted)

Cc1ccc(-c2cn3c4c(sc3[n+]2COC(=O)c2ccc(CN(CP(=O)(O)O)CP(=O)(O)O)cc2)CCCC4)cc1 [BH]
half-life at 100 µM [1, 10]: > 20.8 days
half-life at 100 µM [1, 11]: 3.23 days
affinity to hydroxyapatite [2]: almost identical to that of (BC)
originally present (BH) bound to the hydroxyapatite solid ([3]; 1.9 mM in 5 mM phosphate buffer pH 7, approx. 25 mg hydroxyapatite, 15 minutes): 77%
originally present (BH) in the supernatant, wash number 1 ([3]; 900 μL de-ionized water wash 1): 3.5%
originally present (BH) in the supernatant, wash number 2 ([3]; 900 μL de-ionized water wash 2): 0.6%
(BH) remained in the supernatant solution ([3]; after 15 minutes with hydroxyapatite): 23%
(BH) adsorbed to the hydroxyapatite so as to resist washing off ([3]; of original 1.74 μMoles): 1.26 µmol
total recovered in the original supernatant plus the two water washes ([3]; of original 1.74 μMoles): 0.48 µmol
(BH) extractable with methanol from hydroxyapatite ([4]; 34 hours): no detectable
prodrug cleavage product PFT-β, percent of the 1.26 μMoles sorbed ([4]; 34 hours): 19.6%
(BH) extractable with methanol from hydroxyapatite ([4]; 105 hours): no detectable
prodrug cleavage product PFT-β, percent of the 1.26 μMoles sorbed ([4]; 105 hours): 29.1%
(BH) extractable with methanol from hydroxyapatite ([4]; 153 hours): no detectable
prodrug cleavage product PFT-β, percent of the 1.26 μMoles sorbed ([4]; 153 hours): 37.5%
(BH) extractable with methanol from hydroxyapatite ([4]; start, after washes): no detectable
prodrug cleavage product PFT-β, percent of the 1.26 μMoles sorbed ([4]; start, after washes): < 7%

CC(=O)OC[n+]1c(-c2ccc(C)cc2)cn2c3c(sc21)CCCC3 [BG]
half-life at 100 µM [1, 10]: > 20.8 days
half-life at 100 µM [1, 11]: > 20.8 days

Cc1ccc(C(=O)Cn2c3c(sc2=N)CCCC3)cc1 [PFT-α, 2-[2-imino-4,5,6,7-tetrahydro-1,3-benzothiazol-3(2H)-yl]-1-(4-methylphenyl)-1-ethanone]
peak area (254 nm), Human Serum Stability ([5]; 0 hours): 547169
peak area (254 nm), Human Serum Stability ([5]; 1.5 hours): 312351
peak area (254 nm), Human Serum Stability ([5]; 3 hours): 156823
peak area (254 nm), Human Serum Stability ([5]; 4.5 hours): 118842
peak area (254 nm), Human Serum Stability ([5]; 17 hours): 7927
time in which half of PFT-α is converted to PFT-β ([5]; human serum, initial 50 μMolar): about 3 hours
peak area (254 nm), Phosphate Buffer pH = 7.4 Stability ([6]; 0 hours): 584109
peak area (254 nm), Phosphate Buffer pH = 7.4 Stability ([6]; 1.5 hours): 448284
peak area (254 nm), Phosphate Buffer pH = 7.4 Stability ([6]; 3 hours): 303800
peak area (254 nm), Phosphate Buffer pH = 7.4 Stability ([6]; 4.5 hours): 227004
peak area (254 nm), Phosphate Buffer pH = 7.4 Stability ([6]; 17 hours): 18724
time in which half of PFT-α is converted to PFT-β ([6]; phosphate buffer, initial 50 μMolar): about 1.8 hours
inhibition of apoptosis induced by doxorubicin, etoposide, paclitaxel, cytosine arabinoside, UV light, and gamma radiation ([7]; 10 micromolar concentration): inhibited apoptosis
protection on pretreatment of cells and removal of the compound before the stress-inducing event ([7]; pretreatment, compound removed before stress): no significant protection
tumors or pathological lesions in gamma-irradiated survivors ([8]; 7 months post-irradiation): No tumors or pathological lesions
rescue from 60% killing doses of gamma radiation ([8]; single intraperitoneal injection 2.2 mg/kg, 8 Gy C57BL, 6 Gy Balb/c): completely rescued
weight-loss versus controls ([8]; treated irradiated animals): less weight-loss than controls
protective effect in p53-null mice treated with radiation (p53-null mice): no protective effect

Phenyphosphonic acid [BK]
affinity to hydroxyapatite [2]: no observable affinity

Cc1ccc(-c2cn3c4c(sc3n2)CCCC4)cc1 [PFT-β, 2-p-Tolyl-5,6,7,8-tetrahydro-benzo[d]imidazo[2,1-b]thiazole]
biological activity (inhibition of p53-mediated transcription) [9]: biologically active
peak area (254 nm), Human Serum Stability ([5]; 0 hours): 13781
peak area (254 nm), Human Serum Stability ([5]; 1.5 hours): 259004
peak area (254 nm), Human Serum Stability ([5]; 3 hours): 448826
peak area (254 nm), Human Serum Stability ([5]; 4.5 hours): 512198
peak area (254 nm), Human Serum Stability ([5]; 17 hours): 696098
peak area (254 nm), Phosphate Buffer pH = 7.4 Stability ([6]; 0 hours): 13032
peak area (254 nm), Phosphate Buffer pH = 7.4 Stability ([6]; 1.5 hours): 176201
peak area (254 nm), Phosphate Buffer pH = 7.4 Stability ([6]; 3 hours): 307793
peak area (254 nm), Phosphate Buffer pH = 7.4 Stability ([6]; 4.5 hours): 427152
peak area (254 nm), Phosphate Buffer pH = 7.4 Stability ([6]; 17 hours): 601840
aqueous solubility (Aqueous solubility): about 3 μMolar
